IC50 and inhibition data for 15 compounds are collected here from ChEMBL document CHEMBL1131875, “Selective inhibition of low affinity IgE receptor (CD23) processing: P1' bicyclomethyl substituents” (Bioorg Med Chem Lett, 1999).

In general, IC50 refers to the concentration that inhibits the measured activity by half. The low end stands for greater potency, the high end for weaker potency. The term inhibition denotes the relative decrease from the control value, in per cent.

For one experiment, the target named is T1, Interstitial collagenase (Homo sapiens, UniProt P03956).
T1 sequence (P03956 whole entry): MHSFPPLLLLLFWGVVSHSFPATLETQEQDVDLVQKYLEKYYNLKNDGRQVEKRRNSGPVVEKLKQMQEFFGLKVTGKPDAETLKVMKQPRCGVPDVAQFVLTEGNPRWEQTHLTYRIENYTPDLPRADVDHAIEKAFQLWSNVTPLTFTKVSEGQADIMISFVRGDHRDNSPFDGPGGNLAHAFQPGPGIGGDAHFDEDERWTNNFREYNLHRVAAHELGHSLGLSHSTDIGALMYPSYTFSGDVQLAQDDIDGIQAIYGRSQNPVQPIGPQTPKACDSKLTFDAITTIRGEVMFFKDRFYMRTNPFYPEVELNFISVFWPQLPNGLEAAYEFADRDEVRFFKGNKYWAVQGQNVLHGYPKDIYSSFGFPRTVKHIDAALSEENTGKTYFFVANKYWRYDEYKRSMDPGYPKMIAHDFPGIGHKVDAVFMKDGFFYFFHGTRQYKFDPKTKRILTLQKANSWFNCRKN
Briefly: Inhibitory activity against matrix metalloprotease (MMP-1).

Experiment [1] deals with Matrix metalloproteinase-9 (Homo sapiens, UniProt P14780). The experiment in a line: Inhibitory activity against matrix metalloprotease (MMP-9).
Chain of Matrix metalloproteinase-9 (P14780 whole entry): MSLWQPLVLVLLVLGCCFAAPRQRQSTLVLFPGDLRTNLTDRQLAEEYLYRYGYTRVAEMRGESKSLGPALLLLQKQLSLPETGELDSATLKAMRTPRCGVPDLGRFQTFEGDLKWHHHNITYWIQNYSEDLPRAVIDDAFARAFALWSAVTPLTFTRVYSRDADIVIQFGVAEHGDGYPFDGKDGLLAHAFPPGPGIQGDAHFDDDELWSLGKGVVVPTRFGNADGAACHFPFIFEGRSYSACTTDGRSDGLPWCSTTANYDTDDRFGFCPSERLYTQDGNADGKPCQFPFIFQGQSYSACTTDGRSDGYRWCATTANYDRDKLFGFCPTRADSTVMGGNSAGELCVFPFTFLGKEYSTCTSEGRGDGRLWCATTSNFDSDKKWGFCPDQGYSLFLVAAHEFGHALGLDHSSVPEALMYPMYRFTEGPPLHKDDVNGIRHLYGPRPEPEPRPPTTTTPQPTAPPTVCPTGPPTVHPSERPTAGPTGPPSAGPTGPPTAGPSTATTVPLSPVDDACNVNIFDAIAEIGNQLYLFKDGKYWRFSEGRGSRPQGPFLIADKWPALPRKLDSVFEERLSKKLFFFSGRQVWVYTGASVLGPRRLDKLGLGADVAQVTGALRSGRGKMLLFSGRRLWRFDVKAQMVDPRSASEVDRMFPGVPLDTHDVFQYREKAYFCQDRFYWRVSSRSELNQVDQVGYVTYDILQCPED
For experiment [2], the target named is T2, Stromelysin-1 (Homo sapiens, UniProt P08254). The experiment in a line: Inhibition of matrix metalloprotease (MMP-3).
Target sequence in this assay (P08254 whole entry): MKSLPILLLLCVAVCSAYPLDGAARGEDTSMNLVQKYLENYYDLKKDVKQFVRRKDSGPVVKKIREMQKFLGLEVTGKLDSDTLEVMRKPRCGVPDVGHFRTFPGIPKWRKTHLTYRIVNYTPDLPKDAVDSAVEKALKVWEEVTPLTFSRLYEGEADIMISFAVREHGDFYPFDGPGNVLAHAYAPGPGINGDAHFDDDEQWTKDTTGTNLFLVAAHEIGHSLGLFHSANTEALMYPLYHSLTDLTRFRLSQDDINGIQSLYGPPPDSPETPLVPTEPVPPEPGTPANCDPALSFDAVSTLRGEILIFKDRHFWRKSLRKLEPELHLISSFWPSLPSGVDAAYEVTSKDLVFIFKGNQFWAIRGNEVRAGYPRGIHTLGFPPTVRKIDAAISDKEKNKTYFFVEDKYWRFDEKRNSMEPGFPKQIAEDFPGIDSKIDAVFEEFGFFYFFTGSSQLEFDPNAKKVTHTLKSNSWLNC
Experiment [3] concerns the target T2, Stromelysin-1. Briefly: Inhibition of matrix metalloprotease (MMP-3) at 10 uM.
Target sequence in this assay (P08254 100-477 limits assumed): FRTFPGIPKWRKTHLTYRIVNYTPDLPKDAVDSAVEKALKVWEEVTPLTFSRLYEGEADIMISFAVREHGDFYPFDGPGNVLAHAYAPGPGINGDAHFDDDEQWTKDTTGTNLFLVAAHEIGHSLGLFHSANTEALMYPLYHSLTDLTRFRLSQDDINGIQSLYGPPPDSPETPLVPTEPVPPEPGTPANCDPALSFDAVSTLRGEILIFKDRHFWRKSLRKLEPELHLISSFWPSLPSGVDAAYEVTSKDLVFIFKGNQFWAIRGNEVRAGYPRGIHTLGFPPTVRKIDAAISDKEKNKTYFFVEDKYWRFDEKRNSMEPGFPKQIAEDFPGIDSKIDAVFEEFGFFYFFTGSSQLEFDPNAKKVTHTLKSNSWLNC

Consider `NC(=O)[C@H](Cc1ccccc1)NC(=O)C(Cc1ccc2ccc(O)cc2c1)C(O)C(=O)NO` (single isomer, unassigned), for which the IC50 against Interstitial collagenase is greater than 10000 nM.
Still for that read-out and setting: under `NC(=O)[C@H](Cc1ccccc1)NC(=O)C(Cc1ccc2ccccc2c1)C(O)C(=O)NO` (single isomer, unassigned) stands greater than 10000 nM.
At Interstitial collagenase, `CNC(=O)[C@H](Cc1ccccc1)NC(=O)C(Cc1ccc2ccccc2c1)C(O)C(=O)NO` (single isomer, unassigned) gave a 50% inhibitory concentration (IC50) greater than 1000 nM.
Turning to `CC(C)(C)[C@H](NC(=O)C(Cc1ccc2ccccc2c1)C(O)C(=O)NO)C(N)=O` (single isomer, unassigned), the values for the half-inhibitory concentration (IC50) (in experiment [1]; against Interstitial collagenase; against Stromelysin-1 [2]) were 640 nM, greater than 10000 nM and greater than 10000 nM, respectively.
Consider `CC(C)(C)[C@H](NC(=O)C(C[C@H]1CCc2ccccc2C1)[C@H](O)C(=O)NO)C(N)=O` (stereo not given in full), for which the IC50 in experiment [1] amounted to 230 nM; against Interstitial collagenase, 800 nM; at Stromelysin-1 [2], 230 nM.
As for `CC(C)(C)[C@H](NC(=O)C(C[C@@H]1CCc2ccccc2C1)[C@H](O)C(=O)NO)C(N)=O` (stereo not given in full), on Stromelysin-1 [3], the inhibition amounted to 83%. Moreover, the figures for the IC50 (in experiment [1]; at Interstitial collagenase) were 410 nM and 1800 nM, respectively.
On Interstitial collagenase, `NC(=O)[C@H](Cc1ccccc1)NC(=O)[C@H](Cc1cc2ccccc2s1)[C@H](O)C(=O)NO` had an IC50 of 140 nM.
In the case of `CC(C)(C)[C@H](NC(=O)C(Cc1cnc2ccccc2c1)C(O)C(=O)NO)C(N)=O` (single isomer, unassigned), the IC50 in experiment [1] came to 190 nM; on Interstitial collagenase, 5000 nM; at Stromelysin-1 [2], 3000 nM.
At Interstitial collagenase, `CNC(=O)[C@H](Cc1ccccc1)NC(=O)[C@H](Cc1cc2ccccc2o1)[C@H](O)C(=O)NO` showed a half-inhibitory concentration (IC50) of less than 100 nM.
The compound `CC(C)(C)[C@H](NC(=O)[C@H](Cc1ccc2ccc(F)cc2c1)[C@H](O)C(=O)NO)C(N)=O` showed a concentration for half-maximal inhibition (IC50) against Interstitial collagenase greater than 10000 nM.
The compound `NC(=O)[C@H](Cc1ccccc1)NC(=O)[C@H](Cc1ccc2ccc(F)cc2c1)[C@H](O)C(=O)NO` showed an IC50 against Interstitial collagenase greater than 10000 nM.
For `NC(=O)[C@H](Cc1ccccc1)NC(=O)[C@H](Cc1nc2ccccc2s1)[C@H](O)C(=O)NO`, half-maximal inhibition on Interstitial collagenase (IC50) was put at 500 nM.
Consider `NC(=O)[C@H](Cc1ccccc1)NC(=O)[C@H](Cc1ccc2cc(F)ccc2c1)[C@H](O)C(=O)NO`, for which the IC50 in experiment [1] was 850 nM; against Interstitial collagenase, greater than 10000 nM; against Stromelysin-1 [2], 3000 nM.
Regarding `CNC(=O)[C@@H](NC(=O)C(Cc1ccc2ccccc2c1)C(O)C(=O)NO)C(C)(C)C` (single isomer, unassigned), on Interstitial collagenase, the IC50 is greater than 1000 nM.
Turning to `O=C(C[C@@H](Cc1ccc2ccccc2c1)C(=O)N[C@@H](Cc1ccccc1)C(=O)NCc1ccccc1)NO`, the 50% inhibitory concentration (IC50) at Interstitial collagenase was greater than 1000 nM.
